Patent publication US5773424A, “Treatment of toxoplasmosis” (priority 1994, dated 1998)

molecular target: T. gondii adenosine kinase (Toxoplasma gondii, UniProt Q9TVW2); experiment: biochemical; conditions: not given
Description: Preparation of cytosol extracts. For the structure activity relationships studies, approximately 5×10^8 T. gondii were suspended in 1.2 ml of 50 mM N-2-hydroxyethylpiperazine-N'-2-ethanesulfonic acid (HEPES)-Cl (pH 8.0)/1 mM dithiothreitol and homogenized for 30 seconds at setting 10, using a Brinnmann Instruments Polytron homogenizer fitted with a PTA 7K1 probe. The homogenate was then centrifuged at approximately 116,000 g for 1 hour at 5° and the supernatant (cytosol extract) collected and used as the enzyme source. Fresh cytosol extracts were prepared for each experiment.
Adenosine kinase assay. T. gondii adenosine kinase activity was measured by following the formation of [^14 C]AMP from [^14 C]adenosine and ATP. […] Therefore, the standard reaction mixture contained 50 mM HEPES-Cl (pH 8.0), 1 mM dithiothreitol, 5 μM [8-^14 C]adenosine (45 Ci/mol), 0.5 mM ATP, 0.5 mM MgCl2, 25 μM (+)-EHNA or 100 μM (±)-EHNA,10-30 μl of cytosol extract (approximately 3-10 μg of protein), and either 0, 0.1, 0.25, 0.5 or 1.0 mM of the compound to be tested, in a final volume of 150 μl.
Reactions were started by the addition of [8-^14 C]adenosine, incubated at 37° for 10 minutes and terminated by placing the reaction tubes in a boiling water bath for 2 minutes. Precipitated proteins were removed by centrifugation in a microcentrifuge (approximately 13,000 g) for 5 minutes, and a 15 μl aliquot of the resulting supernatant was mixed with 5 μl of a solution containing 10 mM each of AMP and adenosine. This mixture was then spotted on silica gel thin layer chromatography plates which were developed with a mixture of chloroform/methanol/acetic acid (16:3:1). […] The substrate and product spots (which accounted for all of the radioactivity on the plates) were identified by UV quenching, cut out, and the radioactivity quantitated by liquid scintillation counting in 20 ml of Scintilene, using a Packard 460 scintillation counter. […] Enzyme velocity was calculated by multiplying the fraction of AMP formed from adenosine times the amount of adenosine in the assay, and dividing by the incubation time.
Determination and significance of AppKi values. AppKi values were used to determine the relative degree of binding of compounds to adenosine kinase as compared to adenosine. AppKi values were estimated from Dixon plots of the data (1/.nu. versus [I]), using a computer program with least squares fitting according to the general principles of Cleland (Cleland, W W, The statistical analysis of enzyme kinetic data. Adv. Enzymol. 29:1-32, 1967). The program was written by Dr. Sungman Cha (Brown University, Providence, R.I.) and modified to fit IBM BASIC by Dr. Fardos N. M. Naguib. […] It should be noted, however, that the type of inhibition (i.e., competitive, noncompetitive, or uncompetitive) produced by the compounds was not determined, nor were the compounds evaluated as substrates for T. gondii adenosine kinase.

Chain of T. gondii adenosine kinase (Q9TVW2 whole entry): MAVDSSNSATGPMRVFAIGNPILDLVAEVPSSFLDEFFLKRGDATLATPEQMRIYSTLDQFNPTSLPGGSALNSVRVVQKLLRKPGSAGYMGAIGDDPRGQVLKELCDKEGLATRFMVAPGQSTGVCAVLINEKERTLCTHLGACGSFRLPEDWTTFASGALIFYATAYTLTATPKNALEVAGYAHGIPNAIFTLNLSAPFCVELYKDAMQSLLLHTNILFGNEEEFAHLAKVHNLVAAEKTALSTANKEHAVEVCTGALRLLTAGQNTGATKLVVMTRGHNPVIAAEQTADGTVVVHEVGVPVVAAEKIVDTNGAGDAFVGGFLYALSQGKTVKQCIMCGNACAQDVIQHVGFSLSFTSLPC

Q: Which Ki does the source give for Nc1nc(Cl)nc2c1ncn2[C@@H]1O[C@H](CO)[C@@H](O)[C@H]1O [Compound 7] here?
A: 870 ± 50 µM

Q: For OC[C@H]1O[C@@H](n2cnc3c(S)ncnc32)[C@H](O)[C@@H]1O [Compound 17], which Ki is on record?
A: 5300 µM

Q: OC[C@H]1O[C@@H](n2cnc3c(NCc4ccco4)ncnc32)[C@H](O)[C@@H]1O [Compound 38] was tested. Which Ki did it give?
A: 180 ± 10 µM

Q: CCCCCCCCCCNc1ncnc2c1ncn2[C@@H]1O[C@H](CO)[C@@H](O)[C@H]1O [Compound 42] was tested. Which Ki did it give?
A: 380 ± 130 µM

Q: How did the Ki turn out when Nc1ncnc2c1ncn2[C@H]1CC[C@@H](CO)O1 [Compound 106, 2',3'-Dideoxyadenosine] was run?
A: 5500 µM

Q: For Nc1ncnc2c1ncn2[C@H]1O[C@H](CO)[C@@H](O)[C@H]1O [Compound 3], which Ki is on record?
A: 8400 µM

Q: How did the Ki turn out when Nc1ncnc2c1nc(Br)n2[C@@H]1O[C@H](CO)[C@@H](O)[C@H]1O [Compound 59] was run?
A: 660 ± 70 µM

Q: How did the Ki turn out when CSc1ncnc2c1cnn2[C@@H]1O[C@H](CO)[C@@H](O)[C@H]1O [Compound 79, 8-Aza-6-methylmercapto-7-deazapurine riboside] was run?
A: 140 ± 30 µM

Q: With Nc1ncnc2c1ncn2[C@@H]1O[C@H](CO)[C@H](O)[C@H]1O [Compound 92, Adenine xyloside] as the compound, how does the Ki read?
A: 1400 µM

Q: Which Ki does the source give for OC[C@H]1O[C@@H](n2ncc3cncnc32)[C@H](O)[C@@H]1O [Compound 75, 8-Aza-7-deazapurine riboside] here?
A: 5100 µM

Q: For COc1ccc(C(=O)Nc2ncnc3c2ncn3[C@@H]2O[C@H](CO)[C@@H](O)[C@H]2O)cc1 [Compound 47], which Ki is on record?
A: 3.9 ± 0.9 µM

Q: For OC[C@H]1O[C@@H](n2cnc3c(I)ncnc32)[C@H](O)[C@@H]1O [Compound 14], which Ki is on record?
A: 18 ± 1 µM

Q: For CCCCNc1ncnc2c1ncn2[C@@H]1O[C@H](CO)[C@@H](O)[C@H]1O [Compound 32], which Ki is on record?
A: 220 ± 90 µM

Q: For OC[C@H]1O[C@@H](n2cc(Br)c3c(NO)ncnc32)[C@H](O)[C@@H]1O [Compound 70, N^6 -Hydroxy-7-bromo-7-deazaadenosine], which Ki is on record?
A: 37 ± 9 µM

Q: How did the Ki turn out when CC1(C)O[C@@H]2[C@H](O1)[C@@H](CO)O[C@H]2n1cnc2c(=S)[nH]cnc21 [Compound 122, 2',3'-O-Isopropylidene-6-mercaptopurine riboside] was run?
A: 3900 µM

Q: Which Ki does the source give for COc1ncnc2c1ncn2[C@@H]1O[C@H](CO)[C@@H](O)[C@H]1O [Compound 16] here?
A: 370 ± 40 µM

Q: For NNc1c(C(N)=O)c2c(N)ncnc2n1[C@@H]1O[C@H](CO)[C@@H](O)[C@H]1O [Compound 74, 8-Hydrazino-7-carboxamido-7-deazaadenosine (6-Hydrazinosangivamycin)], which Ki is on record?
A: 160 ± 9 µM

Q: C[C@H]1O[C@@H](n2cnc3c(N)ncnc32)[C@H](O)[C@@H]1O [Compound 93, 5'-Deoxyadenosine] was tested. Which Ki did it give?
A: 40 ± 3 µM

Q: Which Ki does the source give for CCCCCCNc1ncnc2c1ncn2[C@@H]1O[C@H](CO)[C@@H](O)[C@H]1O [Compound 39] here?
A: 76 ± 4 µM

Q: With CSC[C@H]1O[C@@H](n2cnc3c(N)ncnc32)[C@H](O)[C@@H]1O [Compound 98, 5'-Methylthio-5'-deoxyadenosine] as the compound, how does the Ki read?
A: 530 ± 230 µM

Q: Nc1ncnc2c1ncn2[C@@H]1O[C@H](CO)[C@@H](O)[C@@H]1O [Compound 86, Adenine arabinoside (ara-A)] was tested. Which Ki did it give?
A: 3000 µM

Q: Which Ki does the source give for Cn1cnc2c(ncn2[C@H]2C[C@H](O)[C@@H](CO)O2)c1=N [Compound 116, 1-Methyl-2'-deoxyadenosine] here?
A: 8000 µM

Q: With CC(C)CC[C@H]1O[C@@H](n2cnc3c(N)ncnc32)[C@H](O)[C@@H]1O [Compound 101, 5'-Isobutyl-5'-deoxyadenosine] as the compound, how does the Ki read?
A: 410 ± 90 µM

Q: For CC(C)=CCCC(C)=CCNc1ncnc2c1ncn2[C@@H]1O[C@H](CO)[C@@H](O)[C@H]1O [Compound 41], which Ki is on record?
A: 100 ± 5 µM

Q: How did the Ki turn out when NC(=O)c1cn([C@@H]2O[C@H](CO)[C@@H](O)[C@H]2O)c2nc[n+]([O-])c(N)c12 [Compound 80, 7-Carboxamido-7-deazaadenosine-N^1-oxide] was run?
A: 780 ± 70 µM

Q: How did the Ki turn out when Nc1ncnc2c1ncn2[C@@H]1C=C(CO)[C@@H](O)[C@H]1O [Compound 114, Neplanocin A] was run?
A: 37 ± 10 µM

Q: Which Ki does the source give for COc1ccc(C2OC3C(CO)OC(n4cnc5c(N)ncnc54)C3O2)cc1 (stereo not drawn) [Compound 108, 2',3'-O-p-Anisylidene adenosine] here?
A: 1400 µM

Q: How did the Ki turn out when CCSc1ncnc2c1ncn2[C@@H]1O[C@H](CO)[C@@H](O)[C@H]1O [Compound 19] was run?
A: 330 ± 3 µM

Q: For Cn1cnc2c(ncn2[C@@H]2O[C@H](CO)[C@@H](O)[C@H]2O)c1=N [Compound 6], which Ki is on record?
A: 88 ± 28 µM

Q: How did the Ki turn out when CCSc1ncnc2c1cnn2[C@@H]1O[C@H](CO)[C@@H](O)[C@H]1O [Compound 76, 8-Aza-6-ethylmercapto-7-deazapurine riboside] was run?
A: 210 ± 100 µM

Q: Nc1ncnc2c1ncn2[C@@H]1O[C@H](CCl)[C@@H](O)[C@H]1O [Compound 95, 5'-Chloro-5'-deoxyadenosine] was tested. Which Ki did it give?
A: 210 ± 10 µM

same assay, conditions: AppKi for inhibition of T. gondii adenosine kinase, 5 μM adenosine; ± range, at least two estimations

Q: With Nc1ncnc2c1ncn2[C@@H]1O[C@H](COC(=O)c2ccc(S(=O)(=O)F)cc2)[C@@H](O)[C@H]1O [Compound 105, 5'-(p-Fluorosulfonylbenzoyl)adenosine] as the compound, how does the Ki read?
A: 340 ± 40 µM

Q: With CC(C)=CCNc1ncnc2c1ncn2[C@@H]1O[C@H](CO)[C@@H](O)[C@H]1O [Compound 36] as the compound, how does the Ki read?
A: 51 ± 4 µM

Q: Nc1ncnc2c1c(Cl)cn2[C@@H]1O[C@H](CO)[C@@H](O)[C@H]1O [Compound 52] was tested. Which Ki did it give?
A: 10 ± 1 µM

Q: How did the Ki turn out when OC[C@H]1O[C@@H](n2cnc3c(=[Se])[nH]cnc32)[C@H](O)[C@@H]1O [Compound 23] was run?
A: 130 ± 20 µM

Q: OC[C@H]1O[C@@H](n2cnc3c(NC4CCCC4)nc(Cl)nc32)[C@H](O)[C@@H]1O [Compound 66] was tested. Which Ki did it give?
A: 390 ± 90 µM

Q: CN(C)c1ncnc2c1ncn2[C@@H]1O[C@H](CO)[C@@H](N)[C@H]1O [Compound 119, N^6 -Dimethyl-3'-amino-3'-deoxyadenosine] was tested. Which Ki did it give?
A: 540 ± 80 µM

Q: With OC[C@H]1O[C@@H](n2cnc3cncnc32)[C@H](O)[C@@H]1O [Compound 11] as the compound, how does the Ki read?
A: 170 ± 20 µM

Q: Which Ki does the source give for NC(=O)c1cn([C@@H]2O[C@H](CO)[C@@H](O)[C@H]2O)c2ncnc(N)c12 [Compound 55, 7-Carboxamido-7-deazaadenosine (Sangivamycin)] here?
A: < 60 µM

Q: Which Ki does the source give for O=[N+]([O-])c1ccc(CSc2ncnc3c2ncn3[C@@H]2O[C@H](CO)[C@@H](O)[C@H]2O)cc1 [Compound 21] here?
A: 140 ± 10 µM

same assay, conditions: read-out: AppKi for inhibition of T. gondii adenosine kinase; 5 μM adenosine; ± range, at least two estimations

Q: For Nc1ncnc2c1ncn2[C@@H]1C[C@H](CO)[C@@H](O)[C@H]1O (relative stereo) [Compound 112, Carbocyclic adenosine], which Ki is on record?
A: 170 ± 30 µM

Q: How did the Ki turn out when Nc1ncnc2c1ncn2C1O[C@H](CO)[C@H](O)[C@@H]1O (stereo partly drawn) [Compound 107, Adenine lyxoside] was run?
A: 1300 µM

same assay, conditions: read-out: Inhibition of T. gondii adenosine kinase

Q: How did the inhibition at 1000 µM turn out when Nc1nc2c(ncn2[C@@H]2O[C@H](CO)[C@@H](O)[C@H]2O)c(=O)[nH]1 [Compound 64] was run?
A: < 10%

Q: Which inhibition at 1000 µM does the source give for CCCCCCC(C(C)O)n1cnc2c(N)ncnc21 (racemic) [Compound 113, (±)-EHNA] here?
A: < 10%

Q: With Nc1nc2c(ncn2[C@@H]2O[C@H](CO)[C@@H](O)[C@H]2F)c(=O)[nH]1 [Compound 121, 2'-Fluoro-2'-deoxyguanosine] as the compound, how does the inhibition at 1000 µM read?
A: < 10%

Q: With O=c1[nH]c(=O)c2ncn([C@@H]3O[C@H](CO)[C@@H](O)[C@H]3O)c2[nH]1 [Compound 67] as the compound, how does the inhibition at 1000 µM read?
A: < 10%

Q: With CNc1ncnc2c1ncn2[C@H]1C[C@H](O)[C@@H](CO)O1 [Compound 117, N^6 -Methyl-2'-deoxyadenosine] as the compound, how does the inhibition at 1000 µM read?
A: < 10%

Q: With Nc1nc(Nc2ccccc2)nc2c1ncn2[C@@H]1O[C@H](CO)[C@@H](O)[C@H]1O [Compound 9] as the compound, how does the inhibition at 1000 µM read?
A: < 10%

Q: Which inhibition at 1000 µM does the source give for Nc1ccnc2c1ncn2[C@@H]1O[C@H](CO)[C@@H](O)[C@H]1O [Compound 5] here?
A: < 10%

Q: With CO[C@H]1[C@@H](O)[C@H](n2cnc3c(N)ncnc32)O[C@@H]1CO [Compound 91, 3'-O-Methyladenosine] as the compound, how does the inhibition at 1000 µM read?
A: < 10%

Q: Which inhibition at 1000 µM does the source give for CC(=O)O[C@@H]1[C@H](OC(C)=O)[C@@H](CO)O[C@H]1n1cnc2c(N)ncnc21 [Compound 109, 2',3'-Di-O-acetyladenosine] here?
A: < 10%

same assay, conditions: relative to adenosine

Q: Which “Effect on binding to T. gondii adenosine kinase, in words” value does the source give for CO[C@H]1[C@@H](O)[C@H](n2cnc3c(N)ncnc32)O[C@@H]1CO [Compound 91, 3'-O-Methyladenosine] here?
A: abolishes

same assay, conditions: relative to reference compound adenosine

Q: Nc1ncnc2c1ncn2C1O[C@H](CO)[C@H](O)[C@@H]1O (stereo partly drawn) [Compound 107, Adenine lyxoside] was tested. Which “Decrease in binding to T. gondii adenosine kinase” value (“Decrease in binding” for short) did it give?
A: 190 fold

Q: How did the “Decrease in binding” value turn out when Nc1ncnc2c1ncn2[C@@H]1O[C@H](CO)[C@H](O)[C@H]1O [Compound 92, Adenine xyloside] was run?
A: 200 fold

Q: Which “Decrease in binding” value does the source give for C[C@H]1O[C@@H](n2cnc3c(N)ncnc32)[C@H](O)[C@@H]1O [Compound 93, 5'-Deoxyadenosine] here?
A: 5.7 fold

Q: Which “Decrease in binding” value does the source give for Nc1ncnc2c1ncn2[C@@H]1O[C@H](CO)[C@@H](O)[C@@H]1O [Compound 86, Adenine arabinoside (ara-A)] here?
A: 430 fold

Q: With Nc1ncnc2c1ncn2[C@@H]1C=C(CO)[C@@H](O)[C@H]1O [Compound 114, Neplanocin A] as the compound, how does the “Decrease in binding” value read?
A: 5.3 fold
